Legend:
Type in all cases: cell-based, Human
Keratin 10 = assay: Keratins expression profile in HEKa with 1 mM CaCl2, Real Time PCR Arrays (Keratin 10); conditions: Keratin 10 mRNA, 48 hours
Method: (§1) The candidate compound is assayed for its ability to recover the basal keratinocyte state. The keratinocytes of the four layers of the epidermis present different expression patterns of keratins. Basal keratinocytes strongly express Keratin 14 and when differentiated, Keratin 10 is increased. To elucidate the keratinocyte state (basal or differentiated), the expression profile of keratins is analyzed by Real Time PCR Arrays, using a 96-well panel for use with SYBR® Green (BioRad) to detect mRNA expression levels of two keratin genes (Keratins 10 and 14) plus three housekeeping genes, and five controls, in Human Epidermal Keratinocytes from adult (HEKa) (Cascade Biologics).
(§2) HEKa cells are seeded at 6.0×10^5 cells/well in 6-well plates and incubated in culture medium Epilife with defined Growth Supplement (EDGS) (Cascade Biologics), for 24 hours at 37° C. in a water-saturated atmosphere of 95% air and 5% CO2. After 24 hours, the medium is removed and the cells are incubated with the synthetic peptide candidate at several concentrations in culture medium that contains 1 mM CaCl2) (Sigma) to induce differentiation of keratinocytes. Cells are incubated with 1 mM CaCl2) in culture medium and this provides a positive control of differentiation. Cells are incubated with culture medium only and these provide basal conditions. After 48 hours of treatment at 37° C. in a CO2 incubator, the cells are lysed directly in the wells, and RNA is purified following the protocol described on the RNeasy Mini kit (Qiagen) according to the manufacture's protocol. After RNA elution, quantification and analysis of purity of RNA samples are performed with a biophotometer (Eppendorf). […] SYBR Green binds to double-stranded DNA molecules and emits fluorescence which is quantified; the fluorescence intensity is proportional to the amount of the product in the PCR reaction. […] Fold change relative to the expression of the sample genes and reference genes is calculated using normalized expression (ΔΔ(Ct)) method using CFX Manager Software (BioRad).

MYC = assay: Modulation of stem cell markers in HEKa, Real Time PCR Arrays (MYC mRNA); conditions: 48 hours
Method: The candidate compound is evaluated for the modulation of several stem cell markers, those transcription factors regulated by miRNA145 (SOX2, OCT4, KLF4 and MYC). Gene expression profiles are analyzed by Real Time PCR Arrays using a 96-well panel for use with SYBR® Green (BioRad) to detect mRNA expression levels of stem cell markers plus three housekeeping genes, and five controls, in Human Epidermal Keratinocytes from adult (HEKa) (Cascade Biologics).
HEKa cells are seeded at 6.0×10^5 cells/well in 6-well plates and incubated in culture medium, Epilife with defined Growth Supplement (EDGS) (Cascade Biologics), for 24 hours at 37° C. in a water-saturated atmosphere of 95% air and 5% CO2. After 24 hours, the medium is removed and the cells are incubated with the synthetic peptide DD14024 at several concentrations in a culture medium. Cells are incubated with culture medium only and these provide the basal conditions. After 48 hours of treatment at 37° C. in a CO2 incubator, the cells are lysed directly in the wells, and RNA is purified following the protocol described on the RNeasy Mini kit (Qiagen) according to the manufacturer's protocol. After RNA elution, quantification and analysis of purity of RNA samples are performed with a biophotometer (Eppendorf). For each sample, 2 μg of high quality RNA is retrotranscribed with iScript Advanced (BioRad) in a final volume of 20 μl. The complete reaction mix is incubated in a thermal cycler (Eppendorf) at 42° C. for 30 minutes and the reaction is stopped at 85° C. for 5 minutes (?). Complementary DNA is amplified by qPCR in a real-time PCR thermocycler (BioRad) using SYBR Green Supermix (BioRad) in the 96-well panel for use with SYBR® Green (BioRad). SYBR Green binds to double-stranded DNA molecules and emits fluorescence which is quantified; the fluorescence intensity is proportional to the amount of the product in the PCR reaction. […] Fold change relative to the expression of the sample genes and reference genes is calculated using normalized expression (ΔΔ(Ct)) method using CFX Manager Software (BioRad). […]

Keratin 14 = assay: Keratins expression profile in HEKa with 1 mM CaCl2, Real Time PCR Arrays (Keratin 14); conditions: Keratin 14 mRNA, 48 hours
Method: as §1, §2

Fold induction respect to positive control of differentiation (Keratin 10; 1 mM CaCl2, 0.001 mg/ml): 0.68 ± 0.04 | Fold induction respect to positive control of differentiation (Keratin 10; 1 mM CaCl2, 0.005 mg/ml): 0.60 ± 0.02 | Fold induction respect to positive control of differentiation (Keratin 10; 1 mM CaCl2, 0.01 mg/ml): 0.72 ± 0.06 | Fold induction respect to basal conditions (MYC; 0.001 mg/ml): 0.91 ± 0.05 | Fold induction respect to basal conditions (MYC; 0.005 mg/ml): 0.65 ± 0.08 | Fold induction respect to basal conditions (MYC; 0.01 mg/ml): 0.65 ± 0.07 | Fold induction respect to positive control of differentiation (Keratin 14; 1 mM CaCl2, 0.001 mg/ml): 1.29 ± 0.15 | Fold induction respect to positive control of differentiation (Keratin 14; 1 mM CaCl2, 0.005 mg/ml): 1.36 ± 0.15 | Fold induction respect to positive control of differentiation (Keratin 14; 1 mM CaCl2, 0.01 mg/ml): 1.30 ± 0.09
Substance: Ac-QEMRMQ-OH [DD14024, Ac-Gln-Glu-Met-Arg-Met-Gln-OH]
